{"source": "patent US20150164754A1", "about": "“ANTI-AGEING COMPOSITION CONTAINING DEHYDROGENATED ABIETIC ACID AS ACTIVE INGREDIENT” (AMOREPACIFIC CORPORATION, priority 2012, published 2015)", "key": {"human normal fibroblasts [1]": {"test_system": "human normal fibroblasts", "assay": "Effect on fibroblast proliferation (MTT)", "type": "cell-based", "conditions": "10 μM dehydrogenated abietic acid, 24 hours, relative to group not treated with sample", "procedure": "The effect of dehydrogenated abietic acid (purchased from Ramidus AB) of Formula 1 on wrinkle reduction was measured. In order to examine the effect of dehydrogenated abietic acid on skin cell proliferation that reduces wrinkles, human normal fibroblasts were seeded into a 96-well microplate at a density of 1×10^4 cells/well, and incubated in DMEM (Dulbecco's Modified Eagle's Medium) medium in a CO2 incubator at 36.5° C. for 24 hours. After incubation, in Example 1, the medium was replaced with a serum-free medium containing 10 μM of dehydrogenated abietic acid, and then the cells were further incubated for 24 hours. In Comparative Example 1, cells not treated with dehydrogenated abietic acid were used. Then, 10 μl of (3-(4,5-dimethyl-thiazol-2-yl)2,5-diphenyl tetrazolium (MTT, 5 mg/ml) was added to each well, which was then allowed to stand for 4 hours, followed by removal of the medium. Then, 100 μl of dimethyl sulfoxide solution was added to each well, and the absorbance at 570 nm was measured with a microplate reader. Based on the absorbance measured as described above, the cell proliferation effect was calculated using the following equation. The results of the calculation are shown in Table 1 below. Cell proliferation effect (%)=(absorbance of group treated with sample/absorbance of group not treated with sample)×100 Equation 1"}, "human normal fibroblasts [2]": {"test_system": "human normal fibroblasts", "assay": "Effect on stimulation of collagen biosynthesis (PICP kit)", "type": "cell-based", "conditions": "10 μM dehydrogenated abietic acid, 48 hours, supernatant, 50 μg/ml ascorbic acid added", "procedure": "The effect of dehydrogenated abietic acid (purchased from Ramidus AB) of Formula 1 on the stimulation of collagen biosynthesis was measured. In order to examine the effect of dehydrogenated abietic acid on the stimulation of collagen biosynthesis, human normal fibroblasts were seeded into a 96-well microplate at a density of 1×10^4 cells/well, and incubated in DMEM (Dulbecco's Modified Eagle's Medium) medium in a CO2 incubator at 36.5° C. for 24 hours. After incubation, in Example 2, the medium was replaced with a serum-free medium containing 10 μM of dehydrogenated abietic acid, and then the cells were further incubated for 48 hours. In Comparative Example 2, cells not treated with dehydrogenated abietic acid were used. At 24 hours before completion of the incubation, 50 μg/ml of ascorbic acid was added to each well to stimulate collagen synthesis. After completion, each well was washed, and the medium was replaced with serum-free DMEM medium, after which the cells were further incubated for 24 hours. After incubation, the supernatant of each well was collected, and the amount of procollagen type-I C-peptide (PICP) in the supernatant was measured using a kit (Takara, Kyoto, Japan) to determine the amount of newly synthesized collagen. The amount of PICP that is the amount of collagen synthesized is expressed in units of ng/2×10^4 cells in Table 2 below."}}}
{"smiles": "CC(C)c1ccc2c(c1)CC[C@H]1[C@](C)(C(=O)O)CCC[C@]21C", "note": "[Example 1, dehydrogenated abietic acid]", "values": [{"measurement": "Cell proliferation effect (%)", "setting": "human normal fibroblasts [1]", "value": 60.0, "unit": "%"}, {"measurement": "Amount of collagen synthesized (procollagen type-I C-peptide, PICP)", "setting": "human normal fibroblasts [2]", "value": 220, "unit": "ng/2 × 10^4"}]}
